Reference: US10021881B2, “Vaporized administration of pesticides” (priority 2016, dated 2018)

Assay: Thermo Gravity Analysis (TGA) degradation temperature
Assay type: physicochemical
Conditions: for temperature at which degradation began (TGA): ramp 10° C. per minute to 300° C.
Method: This example relates to experiments performed to determine the degradation temperatures of pyrimethanil technical compounds and fungicide samples. In the present example, pyrimethanil compounds from China (compound 1) and Europe (compound 2) were analyzed by Thermo Gravity Analysis (TGA). The pyrimethanil samples were run in both air and nitrogen atmospheres on the Q5000 TGA instrument (TA Instruments) equipped in open platinum pans, and using standard TGA test methods as follows: select gas 1 and 2, data storage on, ramp at 10° C. per minute to 300° C., data storage off, and end method. An isothermal method was also performed according to standard methods.

For `Cc1cc(C)nc(Nc2ccccc2)n1` [compound 1], the “temperature at which degradation began (TGA)” value (in air) was “about 120.3 °C”, the “temperature at which degradation was complete (TGA)” value (in both air and nitrogen) was “about 200 °C” and the “temperature at which degradation began (TGA)” value (in nitrogen) was “about 120.6 °C”.
